According to publication PMC10962542, “Inhibition of Aurora‐A/N‐Myc Protein–Protein Interaction Using Peptidomimetics: Understanding the Role of Peptide Cyclization” (Chembiochem, 2023):
Marks after values point to notes of the source that are not given here. Where a SMILES comes first, the peptide text is derived from it. Bridges are numbered along the chain shown (N, C = ends).

How the values were obtained:
circular dichroism = assay: circular dichroism; design: unit not given here; conditions: 25 mM Tris, 150 mM NaCl, 5 mM MgCl2; pH 7.5; 5 °C; 30-120 uM
[1] = molecular target: T1, N‐Myc/Aurora‐A interaction (Aurora‐A122‐403‐C290A/C393A) (Homo sapiens, UniProt O14965, C290A/C393A); assay: competition fluorescence anisotropy (FA) assay against fluorescein labelled N‐Myc61‐89; type: binding; conditions: SD; also: equilibrated 2 h at room temperature
T1 construct: Aurora‐A 122‐403‐C290A/C393A protein was produced as described previously; made in house
T1 sequence (O14965 122-403 C290A/C393A): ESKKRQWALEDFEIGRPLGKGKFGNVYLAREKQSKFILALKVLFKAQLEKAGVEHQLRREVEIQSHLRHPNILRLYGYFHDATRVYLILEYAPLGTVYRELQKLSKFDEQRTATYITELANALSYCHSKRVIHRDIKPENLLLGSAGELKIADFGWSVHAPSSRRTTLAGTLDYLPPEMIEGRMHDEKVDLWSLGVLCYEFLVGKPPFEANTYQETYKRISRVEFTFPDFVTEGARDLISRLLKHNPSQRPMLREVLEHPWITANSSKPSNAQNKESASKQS

[2] = circular dichroism (CD) spectroscopy; type: physicochemical; conditions: 150 mM NaCl, 5 mM MgCl2, pH 7.5, 5 °C, n=2, free‐thiol (red) samples with 5 mol equivalents TCEP; for MRE222 (mean residue ellipticity at 222 nm): 25 mM Tris, mean ± SD, SD; for % Helicity (estimated): from MRE222 by equation 7, 25 mM Tris
Method in brief: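 Peptides at 30–120 μM in 25 mM Tris, 150 mM NaCl, 5 mM MgCl2, pH 7.5 (plus 5 mol eq. TCEP for free sulfhydryl peptides) were scanned in duplicate at 5 °C from 290 to 180 nm, 1 mm pathlength. Buffer-subtracted ellipticity gave mean residue ellipticity, and % helicity was estimated from MRE at 222 nm.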

Aurora‐A and N‐Myc = conditions: in comparison to established allosteric Aurora‐A inhibitors; cited from earlier work
Excerpt: (§1) Similarly, Weiss and co‐workers developed a series of conformation‐disrupting Aurora‐A inhibitors based on diaminopyrimidine and pyrazolopyrimidine scaffolds, such as CD532.[8]

N‐Myc protein levels = conditions: cited from earlier work
Excerpt: as §1

[3] = tested on: N‐Myc/Aurora‐A interaction; conditions: competition co‐precipitation; cited from earlier work
Excerpt: as §1

Compound: CSCC[C@H](NC(=O)[C@H](CCC(=O)O)NC(=O)[C@@H](NC(=O)[C@@H](NC(=O)[C@H](Cc1c[nH]c2ccccc12)NC(=O)[C@H](CO)NC(=O)[C@@H]1CCCN1C(=O)[C@@H]1CCCN1C(=O)[C@H](CCC(=O)O)NC(C)=O)C(C)C)[C@@H](C)O)C(=O)N[C@@H](CC(C)C)C(=O)N[C@@H](CC(C)C)C(=O)N[C@@H](CCC(=O)O)C(=O)N[C@@H](CC(N)=O)C(=O)N[C@H]1CSSC[C@@H](C(=O)N2CCC[C@H]2C(=O)N[C@@H](C)C(=O)N[C@@H](CCC(=O)O)C(=O)N[C@@H](CCC(=O)O)C(N)=O)NC(=O)CNC(=O)[C@H](Cc2c[nH]c3ccccc23)NC(=O)[C@H](CC(C)C)NC1=O [N‐Myc73‐94‐E86C/S90C (ox)] (Ac-EPPSWVTEMLLENCLWGCPAEE-NH2; disulfide 14-18)
- helicity (circular dichroism): -7450
- IC50 [1]: 172 ± 23 µM
- MRE222 (mean residue ellipticity at 222 nm) [2]: −7454±130 deg cm^−1 dmol^−1 res^−1
- % Helicity (estimated) [2]: 21±1%

Compound: CSCC[C@H](NC(=O)[C@H](CCC(=O)O)NC(=O)[C@@H](NC(=O)[C@@H](NC(=O)[C@H](Cc1c[nH]c2ccccc12)NC(=O)[C@H](CO)NC(=O)[C@@H]1CCCN1C(=O)[C@@H]1CCCN1C(=O)[C@H](CCC(=O)O)NC(C)=O)C(C)C)[C@@H](C)O)C(=O)N[C@@H](CC(C)C)C(=O)N[C@@H](CC(C)C)C(=O)N[C@@H](CCC(=O)O)C(=O)N[C@@H](CC(N)=O)C(=O)N[C@@H](CS)C(=O)N[C@@H](CC(C)C)C(=O)N[C@@H](Cc1c[nH]c2ccccc12)C(=O)NCC(=O)N[C@@H](CS)C(=O)N1CCC[C@H]1C(=O)N[C@@H](C)C(=O)N[C@@H](CCC(=O)O)C(=O)N[C@@H](CCC(=O)O)C(N)=O [N‐Myc73‐94‐E86C/S90C (red)] (Ac-EPPSWVTEMLLENCLWGCPAEE-NH2)
- helicity (circular dichroism): -6400
- IC50 [1]: 203 ± 4 µM
- MRE222 (mean residue ellipticity at 222 nm) [2]: −6397±64^[e] deg cm^−1 dmol^−1 res^−1
- % Helicity (estimated) [2]: 18±1%

Compound: CN(C)C(=O)c1cc2cnc(Nc3ccc(C(=O)NCCCCCCOc4cccc5c4C(=O)N(C4CCC(=O)NC4=O)C5=O)cc3)nc2n1C1CCCC1 (stereo not shown) [HLB‐0532259]
- degradation of Aurora‐A and N‐Myc (Aurora‐A and N‐Myc): promote degradation of Aurora‐A and N‐Myc with superior potency

Compound: O=C(Nc1ccc(Nc2nccc(Nc3cc(C4CCCC4)[nH]n3)n2)cc1)Nc1cccc(C(F)(F)F)c1 [CD532]
- N‐Myc protein levels in xenographs (N‐Myc protein levels): reduced N‐Myc protein levels

Compound: CSCC[C@H](NC(=O)[C@H](CCC(=O)O)NC(=O)[C@@H](NC(=O)[C@@H](NC(=O)[C@H](Cc1c[nH]c2ccccc12)NC(=O)[C@H](CO)NC(=O)[C@@H]1CCCN1C(=O)[C@@H]1CCCN1C(=O)[C@H](CO)NC(C)=O)C(C)C)[C@@H](C)O)C(=O)N[C@@H](CC(C)C)C(=O)N[C@@H](CC(C)C)C(=O)N[C@@H](CCC(=O)O)C(=O)N[C@@H](CC(N)=O)C(=O)N[C@@H](CCC(=O)O)C(=O)N[C@@H](CC(C)C)C(=O)N[C@@H](Cc1c[nH]c2ccccc12)C(=O)NCC(N)=O [N‐Myc73‐89‐E73S]
- helicity (circular dichroism): -5540
- IC50 [1]: 217 ± 13 µM
- MRE222 (mean residue ellipticity at 222 nm) [2]: −5541±66 deg cm^−1 dmol^−1 res^−1
- % Helicity (estimated) [2]: 17±1%

Compound: Ac-SWVTEMLLENELWG-NH2 [N‐Myc76‐89]
- helicity (circular dichroism): -4340
- IC50 [1]: 215 ± 11 µM
- MRE222 (mean residue ellipticity at 222 nm) [2]: −4342±142 deg cm^−1 dmol^−1 res^−1
- % Helicity (estimated) [2]: 14±1%

Compound: O=C(O)c1ccc(Nc2ncc3c(n2)-c2ccc(Cl)cc2C(c2c(F)cccc2F)=NC3)cc1 [MLN8054]
- disruption of the N‐Myc/Aurora‐A interaction [3]: disrupted
